Our source for the IC50 values is patent US20210130308A1, “MODULATORS OF EUKARYOTIC INITIATION FACTOR 2” (Denali Therapeutics Inc., priority 2018, published 2021).

As usually defined, the IC50 is the concentration that gives 50% inhibition.

The test system of the assay is ATF4 translation (ISR pathway activation). The assay can be described thus: ATF4 Nano Luciferase reporter integrated stress response (ISR) assay in H4 ATF4-NLuc (clone 17) cells. Type of assay: cell-based, human. An excerpt:
Cellular stress leads to activation of the integrated stress response pathway through one of four eukaryotic initiation factor 2α kinases and halts global translation, while allowing for the translation of select transcripts like ATF4 (activating transcription factor 4) that are important for the response to cellular stress. During normal conditions, small open reading frames (ORFs) in the 5′ UTR of ATF4 occupy the ribosome and prevent translation of the coding sequence of ATF4. During stress conditions however, the ribosome scans past these upstream ORFs and preferentially begins translation at the coding sequence of ATF4. In this way, the translation, and thus protein level of ATF4 is a readout of ISR pathway activation. Thus, a fusion of the uORFs and the beginning of the coding sequence of ATF to a common cellular reporter like nano-luciferase allows for a sensitive and high-throughput readout of ISR pathway activity.
Compounds as provided herein were tested in the following assay. The ATF4 Nano Luciferase reporter was constructed by fusing the human full length 5′ untranslated region (5′-UTR) and a small portion of the coding sequence of the ATF4 gene upstream of the Nano Luciferase (NLuc) coding sequence lacking it's start codon. Specifically, nucleotides +1 through +364 (relative to the transcriptional start site) of ATF4 transcript variant 2 (NCBI NM_182810.2) flanked 5′ by EcoRI and 3′ by BamHI restriction enzyme sites were synthesized and cloned into the EcoRI/BamHI cloning sites of pLVX-EF1a-IRES-Puro lentivirus vector (Clontech). […]. H4 cells were selected with […] Puromycin, and clonal cell lines generated by limiting dilution. We utilized this cell line to generate an integrated stress response (ISR) assay to evaluate the activity of ISR pathway inhibitors via luminescence readout. The H4 ATF4-NLuc (clone 17) cell line is plated at a density of […] in 96-well or 384-well respectively in DMEM+10% fetal bovine serum. 24-hours later test compounds diluted in dimethyl sulfoxide (DMSO) are added for 30 minutes at 37 degree Celsius, followed by ISR pathway activation with 50 um sodium arsenite aqueous solution for 6 additional hours. Nano Glo luciferase reagent (N1150, Promega) is added according to manufacturer instructions and the luminescence signal (corresponding to the level of ATF4 translation and thus ISR pathway activation) is read with a standard plate reader with luminescence detection capabilities.
In the table below, activity of the tested compounds is provided in Table 3 as follows: +++=IC50<1 μM; ++=IC50 1-10 μM; +=IC50>10 μM.
On the technique in general: In a reporter assay the amount or activity of a reporter protein is the signal.

Setting [1] is: Homo sapiens, 0.5 h, H4 ATF4-NLuc (clone 17) cells, compounds 30 minutes at 37 degree Celsius, then 50 um sodium arsenite for 6 additional hours, luminescence readout, read-out: IC50.

Read-outs that look alike come from different tables or passages of the source. Where only a bound is given, the exact number is not on record here.

Turning to `CC1(C#N)CC(OCC(=O)NC23CC(NC(=O)COc4ccc(Cl)c(F)c4)(C2)C3)C1` (stereo not drawn) [Example 11, 2-(4-chloro-3-fluorophenoxy)-N-(3-(2-(3-cyano-3-methylcyclobutoxy)acetamido)bicyclo[1.1.1]pentan-1-yl)acetamide], the IC50 under setting [1] was under 1 µM. Same read-out and setting: the value for `O=C(COc1ccc(Cl)c(F)c1)NC1CCN(c2ccnc(C3CC(OC(F)(F)F)C3)n2)CC1` [58 (cis isomer), 2-(4-chloro-3-fluorophenoxy)-N-(1-(2-(3-cis-(trifluoromethoxy)cyclobutyl)pyrimidin-4-yl)piperidin-4-yl)acetamide] was under 1 µM. The same measure, in the same setting: to `O=C(COC1CC(OC(F)(F)F)C1)NC12CC(NC(=O)c3nc4cc(Cl)ccc4s3)(C1)C2` (stereo not drawn) [Example 52, 5-chloro-N-[1-[[2-[3-cis-(trifluoromethoxy)cyclobutoxy]acetyl]amino]-3-bicyclo[1.1.1]pentanyl]-1,3-benzothiazole-2-carboxamide] belongs under 1 µM; to `O=C(COC1CC(OC(F)(F)F)C1)NC12CC(NC(=O)[C@H]3CCc4cc(C(F)(F)F)ccc4O3)(C1)C2` (single isomer, unassigned) [Example 72 (first eluting isomer), N-(3-(2-(3-cis-(trifluoromethoxy)cyclobutoxy)acetamido)bicyclo[1.1.1]pentan-1-yl)-6-(trifluoromethyl)chroman-2-carboxamide], under 1 µM; to `O=C(NC1CCN(C(=O)COC2CC(OC(F)(F)F)C2)CC1)c1ccc2cc(Cl)ccc2n1` (stereo not drawn) [Example 63, 6-chloro-N-[1-[2-[3-cis-(trifluoromethoxy)cyclobutoxy]acetyl]-4-piperidyl]quinoline-2-carboxamide], under 1 µM.

`O=C(COC1CC(OC(F)(F)F)C1)NC12CC(NC(=O)c3ccc4cc(Cl)ccc4n3)(C1)C2` (stereo not drawn) [Example 64, 6-chloro-N-[1-[[2-[3-cis-(trifluoromethoxy)cyclobutoxy]acetyl]amino]-3-bicyclo[1.1.1]pentanyl]quinoline-2-carboxamide]: the concentration for half-maximal inhibition (IC50) under setting [1] is under 1 µM. For `O=C(COc1ccc(Cl)cc1)N[C@H]1CC[C@H](c2nnc(C3CC(OC(F)(F)F)C3)o2)CC1` (stereo partly drawn) [Example 29, 2-(4-chlorophenoxy)-N-[4-[5-[3-cis-(trifluoromethoxy)cyclobutyl]-1,3,4-oxadiazol-2-yl]cyclohexyl]acetamide], the IC50 (Homo sapiens, 0.5 h) is under 1 µM.

For the compound `O=C(COc1ccc(Cl)c(F)c1)NC1CN(C(=O)COC2CC(OC(F)(F)F)C2)C1` (stereo not drawn) [Example 24, 2-(4-chloro-3-fluoro-phenoxy)-N-[1-[2-[3-cis-(trifluoromethoxy)cyclobutoxy]acetyl]azetidin-3-yl]acetamide], the IC50 under setting [1] fell in the range of 1 to 10 µM. Turning to `N#CC1CC(OCC(=O)NC23CC(NC(=O)COc4ccc(Cl)cc4)(C2)C3)C1` (stereo not drawn) [Example 6, 2-(4-chlorophenoxy)-N-(3-(2-(3-cyanocyclobutoxy)acetamido)bicyclo[1.1.1]pentan-1-yl)acetamide], the 50% inhibitory concentration (IC50) under setting [1] is under 1 µM.

Consider `O=C(COC1CC(OC(F)(F)F)C1)NC12CC(NC(=O)c3ccc4cc(F)c(F)cc4n3)(C1)C2` (stereo not drawn) [Example 69, 6,7-difluoro-N-(3-(2-(3-cis-(trifluoromethoxy)cyclobutoxy)acetamido)bicyclo[1.1.1]pentan-1-yl)quinoline-2-carboxamide], for which the IC50 under setting [1] is under 1 µM. The same measure, in the same setting: to `O=C(COC1CC(F)C1)NC12CC(NC(=O)c3ccc4cc(C(F)(F)F)ccc4n3)(C1)C2` (stereo not drawn) [Example 53, N-[1-[[2-(3-trans-fluorocyclobutoxy)acetyl]amino]-3-bicyclo[1.1.1]pentanyl]-6-(trifluoromethyl)quinoline-2-carboxamide] belongs under 1 µM; to `O=C(COc1ccc(C(F)(F)F)cc1)NC12CC(N3CCN(C4CC(OC(F)(F)F)C4)C3=O)(C1)C2` (stereo not drawn) [Example 74], under 1 µM. The same measure, in the same setting: to `CC1(C)CC(OCC(=O)NC23CC(NC(=O)COc4ccc(Cl)cc4)(C2)C3)C1` [Example 5, 2-(4-chlorophenoxy)-N-(3-(2-(3,3-dimethylcyclobutoxy)acetamido)bicyclo[1.1.1]pentan-1-yl)acetamide] belongs under 1 µM. Still for that read-out and setting: the value for `O=C(COc1ccc(Cl)c(F)c1)NC12CC(NC(=O)COC3CC(OC(F)F)C3)(C1)C2` (stereo not drawn) [Example 34, 2-(4-chloro-3-fluoro-phenoxy)-N-[3-[[2-[3-cis-(difluoromethoxy)cyclobutoxy]acetyl]amino]-1-bicyclo[1.1.1]pentanyl]acetamide] was under 1 µM; that for `O=C(COc1ccc(Cl)cc1)NC12CC(NC(=O)COC3CC4(CCC4)C3)(C1)C2` [Example 4, 2-(4-chlorophenoxy)-N-(3-(2-(spiro[3.3]heptan-2-yloxy)acetamido)bicyclo[1.1.1]pentan-1-yl)acetamide] was under 1 µM. Consider `O=C(COC1CC(CC(F)(F)F)C1)NC12CC(NC(=O)c3ccc4cc(C(F)(F)F)ccc4n3)(C1)C2` (stereo not drawn) [Example 75], for which the half-maximal inhibitory concentration (IC50) under setting [1] was under 1 µM. For the compound `O=C(COc1ccc(Cl)c(F)c1)NC1CC2(CCN(C(=O)COC3CCC3)CC2)C1` [Example 15, 2-(4-chloro-3-fluoro-phenoxy)-N-[7-[2-(cyclobutoxy)acetyl]-7-azaspiro[3.5]nonan-2-yl]acetamide], the 50% inhibitory concentration (IC50) under setting [1] was under 1 µM.

For `CC1(OCC(=O)NC23CC(NC(=O)COc4ccc(Cl)cc4)(C2)C3)CC(C#N)C1` (stereo not drawn) [Example 8, 2-(4-chlorophenoxy)-N-(3-(2-(3-cyano-1-methylcyclobutoxy)acetamido)bicyclo[1.1.1]pentan-1-yl)acetamide], the concentration for half-maximal inhibition (IC50) under setting [1] was in the range of 1 to 10 µM. Consider `CO[C@H]1CN(CCOC2CC(OC(F)(F)F)C2)CCC1NC(=O)COc1ccc(Cl)c(F)c1` (stereo partly drawn) [Example 48, 2-(4-chloro-3-fluoro-phenoxy)-N-[cis-3-methoxy-1-[2-[3-cis-(trifluoromethoxy)cyclobutoxy]ethyl]-4-piperidyl]acetamide], for which the 50% inhibitory concentration (IC50) under setting [1] was under 1 µM. The compound `O=C(COC1CC(OC(F)(F)F)C1)NC1CCN(c2nnc(-c3ccc(Cl)cc3)o2)CC1` (stereo not drawn) [Example 44, N-[1-[5-(4-chlorophenyl)-1,3,4-oxadiazol-2-yl]-4-piperidyl]-2-[3-cis-(trifluoromethoxy)cyclobutoxy]acetamide] had a half-inhibitory concentration (IC50) (Homo sapiens, 0.5 h) of under 1 µM. On to `O=C(COc1ccc(Cl)c(F)c1)NC1CC(OCCOC2CC(OC(F)(F)F)C2)C1` (single isomer, unassigned) [42 (isomer 2), 2-(4-chloro-3-fluoro-phenoxy)-N-[3-[2-[3-cis-(trifluoromethoxy)cyclobutoxy]ethoxy]-trans-cyclobutyl]acetamide], for which the IC50 (H4 ATF4-NLuc (clone 17) cells, compounds 30 minutes at 37 degree Celsius, then 50 um sodium arsenite for 6 additional hours, luminescence readout, read-out: IC50) is under 1 µM.

As to `N#CC1CC(OCC(=O)N2CCC3(CC2)CC(NC(=O)COc2ccc(Cl)c(F)c2)C3)C1` (stereo not drawn) [Example 14, 2-(4-chloro-3-fluoro-phenoxy)-N-[7-[2-(3-cyanocyclobutoxy)acetyl]-7-azaspiro[3.5]nonan-2-yl]acetamide], the 50% inhibitory concentration (IC50) under setting [1] is under 1 µM.

As for `O=C(COc1ccc(Cl)c(F)c1)N[C@@H]1C[C@@H]2[C@H](C1)[C@H]2c1nnc(C2CC(OC(F)(F)F)C2)o1` (stereo partly drawn) [Example 43, 2-(4-chloro-3-fluoro-phenoxy)-N-[(1R,5S)-6-[5-[3-(trifluoromethoxy)cyclobutyl]-1,3,4-oxadiazol-2-yl]-3-bicyclo[3.1.0]hexanyl]acetamide], the half-maximal inhibitory concentration (IC50) under setting [1] was under 1 µM. Same read-out and setting: the value for `N#CC1CC(OCC(=O)N2CC3(CC(NC(=O)COc4ccc(Cl)c(F)c4)C3)C2)C1` (stereo not drawn) [Example 20, 2-(4-chloro-3-fluoro-phenoxy)-N-[2-[2-(3-cyanocyclobutoxy)acetyl]-2-azaspiro[3.3]heptan-6-yl]acetamide] was under 1 µM; that for `O=C(COc1ccc(Cl)c(F)c1)NC1CCN(CC(F)(F)COC2CC(OC(F)(F)F)C2)CC1` (stereo not drawn) [Example 57, 2-(4-chloro-3-fluorophenoxy)-N-(1-(2,2-difluoro-3-(3-cis-(trifluoromethoxy)cyclobutoxy)propyl)piperidin-4-yl)acetamide] was under 1 µM.

With `O=C(COC1CC(OC(F)(F)F)C1)NC1CN(c2nnc(COc3ccc(Cl)c(F)c3)o2)C1` (stereo not drawn) [Example 22, N-[1-[5-[(4-chloro-3-fluoro-phenoxy)methyl]-1,3,4-oxadiazol-2-yl]azetidin-3-yl]-2-[3-cis-(trifluoromethoxy)cyclobutoxy]acetamide], the IC50 under setting [1] is under 1 µM. Consider `O=C(COc1ccc(Cl)cc1)NC12CC(NC(=O)COC3CC(C(F)(F)F)C3)(C1)C2` (single isomer, unassigned) [3 (first eluting isomer), 2-(4-chlorophenoxy)-N-(3-(2-(3-(trifluoromethyl)cyclobutoxy)acetamido)bicyclo[1.1.1]pentan-1-yl)acetamide], for which the IC50 under setting [1] was under 1 µM.
